Experimental data reported in US11684306B2, “Stable water isotope labeling and magnetic resonance imaging for visualization of the presence of and prediction of the likelihood of occurence of rapidly dividing cells” (THE UNITED STATES OF AMERICA, AS REPRESENTED BY THE …, priority 2016, dated 2023).

Key:
Format in all cases: in vivo
[1] = Total body water (TBW) deuterium enrichment in mice
Source text: In one aspect, deuterium labeling was achieved by intraperitoneal injection of 100% ^2H2O with NaCl added to make this fluid isotonic, then maintaining the achieved 5% ^2H enrichment in total body water (TBW) by providing 8% ^2H2O in drinking water to mice. Deuterium within total body water diffuses rapidly into all tissues and is excreted unchanged by the kidneys. Therefore, according to various embodiments, deuterium labeled fluids may be provided to an animal or human subject via injected and/or ingested fluid yielding a deuterium concentration of about 5% TBW. […] Higher TBW enrichments (up to 20% TBW ^2H) may improve sensitivity of dMRI detection. Such enrichments should be safe, as deuterium is non-radioactive, tasteless, colorless and without known side effects at these doses.
FIG. 9 is an illustration for one embodiment of a scheme 900 for labeling and imaging rapidly dividing cells. As shown, the method begins with total body irradiation (TBI) conditioning performed one day prior to the infusion of a transplant graft (day −1), indicated as 902. In the embodiment shown, the bone marrow transplant (BMT) graft, containing bone marrow stem cells and T cells from the donor spleen, is infused on day 0, indicated as 904. […]
For measuring ^2H2O water levels in TBW (e.g. urine), we developed a simple and quantitative headspace-GC-NCI-MS method (publication pending). […]

[2] = Safety of deuterium enrichment in total body water
[3] = Total body water (TBW) deuterium enrichment in people

[2H]O[2H] [deuterated water]
time for TBW deuterium enrichment to return to baseline (0.015%) after supplementation is discontinued [1]: approximately 7 days | toxicity ([2]; doses up to 20% in total body water): non-toxic | safety of higher TBW enrichment ([2]; enrichments up to and including approximately 20% TBW): safely achieved | effect on rates of DNA synthesis ([2]; in vivo): does not affect rates of DNA synthesis | time for TBW deuterium enrichment to return to baseline (0.015%) after supplementation is discontinued [3]: ~14 days
